Data on one compound can be found in patent US8247170B2, “Detection of penicillin tolerance in Group B Streptococcus: single nucleotide polymorphisms in penicillin binding protein 4” (priority 2008, dated 2012).

For the assay, the system named is GBS laboratory strains and clinical isolates. Briefly: Microbroth (96-well) penicillin tolerance assay. The assay is classed as cell-based, Group B Streptococcus. Conditions: for Penicillin Phenotypes: 48 hr penicillin, 24 hr drug free culture; for replication or viability after re-plate and additional 24-hour culture (FIG. 1): penicillin G 1× to 256×MIC90 48 hours. How it is done:
An in vitro method involving microbroth (96-well) culture was used to develop a penicillin tolerance assay. In this assay, the inventors tested three laboratory bacterial strains (i.e., GBS strains A909, NEM316, and O90R). These cells were commercially obtained from ATCC source. Bacterial cells were cultured overnight for 18 hours at 37° C. in Todd-Hewitt Broth (THB). Subcultures in THB were subsequently grown to exponential phase (OD600˜0.3) at 37° C. Cell cultures were then exposed to different concentrations of penicillin G (Sigma, St. Louis, Mo.). […] Cell cultures were dispersed. A dilution (i.e., 1 to 20) of cells was re-plated into new wells containing fresh THB with 500 U Penase (to destroy residual penicillin). Cell cultures were allowed to grow for an additional 24 hours at 37° C. Assays were repeated four (4) times and standard bar represents standard deviations.
Using this established 96-well assay (i.e., microbroth assay), 115 clinical isolates of GBS were further tested. These were cervico-vaginal rectal clinical isolates (obtained from pregnant humans), and characterized their penicillin tolerance. The phenotype definitions (above) were used to identify the penicillin tolerant isolates.
(I) Bacterial Strains and Culture Conditions. GBS strains A909 (serotype IA), 515 (serotype IA), NEM316 (serotype III), COHI (serotype III), 2603V/R (serotype V) and O90R (non-typable) were used in this study. E. coli Top10 cells were used for the recombination experiments. GBS was cultured in Todd Hewitt broth (THB) or Tryptic Soy 5% sheep blood (TS) media and E. coli in Luria-broth (LB) medium or agar. Antibiotics were used at the following concentrations: for GBS—penicillin G (MIC90 0.06 μg ml^−1), ampicillin (MIC90 0.12 μg ml^−1), vancomycin (MIC90 2 μg ml^−1), cefazolin (MIC90 1 μg ml^−1) and chloramphenicol (5 μg ml^−1); for E. coli—ampicillin (50 μg ml^−1) and chloramphenicol (5 μg ml^−1). Both GBS and E. coli cultures were grown at 37° C. (II) Tolerance Using the MBC:MIC Ratio Method. Three GBS laboratory strains (i.e., A909, NEM316, and O90R) were cultured overnight for 18 h at 37° C. in THB. Subcultures in THB were subsequently grown to exponential phase (OD600˜0.3; i.e. 5×10^5 cfu/ml) at 37° C. Cell cultures were then exposed to different concentrations of antibiotics (Penicillin G, Ampicillin, Cefozolin or Vancomycin). […] Cell cultures were dispersed every 18 h before OD600 was measured to determine the lowest concentration of antibiotic with 90% growth inhibition (MIC90). Antibiotic treated cells (8 μl) from each well were re-suspended into PBS (100 μl) and plated (54 μl) on TS agar plates and allowed to grow for an additional 24 h at 37° C. Cell count was performed to determine the lowest concentration of antibiotic with 90% killing of original inoculums (MBC90). (III) Penicillin Killing and Regrowth Tolerance Assay by Microbroth Dilution. Three GBS laboratory strains (i.e., A909, NEM316, and O90R) were cultured overnight for 18 h at 37° C. in THB. Subcultures in THB were subsequently grown to exponential phase (OD600˜0.3) at 37° C. Cell cultures were then exposed to different concentrations of Penicillin G (Sigma, St. Louis, Mo.). […] Cell cultures were dispersed. A 1:20 dilution of cells was re-plated into new wells containing fresh THB with 500 U Penase (to degrade residual penicillin). Cell cultures were allowed to re-grow for an additional 24 h at 37° C. before the OD600 was measured. (IV) Measuring Cell Viability by Determining ATP Concentration. GBS strains were cultured for 18 h at 37° C. in THB. These cells were inoculated into fresh THB and subsequently allowed to grow to exponential phase (OD600 0.25-0.3) at 37° C. One ml of each culture was centrifuged at 5,000×g for 4 min. The cell pellet was re-suspended in ATP-free water. Cellular ATP was extracted using trichloroacetic acid (TCA) (5%) for 2 min and subsequently neutralized with Tris-EDTA-0.1M NaOAc, pH 7.75 to 10×TCA volume. […]

As for `CC1(C)S[C@@H]2[C@H](NC(=O)Cc3ccccc3)C(=O)N2[C@H]1C(=O)O` [Penicillin G], the “% GBS Clinical Strains, Intermediate” value (115 clinical isolates) is 8%. The “% GBS Clinical Strains, Paradoxical Effect-Penicillin Tolerance (PE-PT)” value (115 clinical isolates) was 27%. Also, the “% GBS Clinical Strains, Penicillin Tolerance (PT)” value (115 clinical isolates) is recorded as 16%. In addition, the “% GBS Clinical Strains, Susceptible (S)” value (115 clinical isolates) is listed as 49%. Besides, the “Penicillin Phenotypes” value is, setting by setting: (GBS laboratory strain A909) “Susceptible (S)”; (GBS laboratory strain NEM316) “Paradoxical Effect-Penicillin Tolerance (PE-PT)”; (GBS laboratory strain O90R) “Penicillin Tolerance (PT)”. The “replication or viability after re-plate and additional 24-hour culture (FIG. 1)” value is, setting by setting: (GBS strain A909) “did not replicate”; (GBS strain NEM316, viability lost at 16× to 64×MIC90) “paradoxical effect”; (GBS strain O90R) “did not inhibit the replication or viability”.
